“And” between values parts separate entries of the source, which are not always exact repeats. Equal values may be shown once. After the bases stand the sugars from the 5' end (letter, count) and the backbone: PS all phosphorothioate, else s phosphorothioate and o phosphodiester by linkage. Methylation of C is not given here. e = 2'-O-(2-methoxyethyl) (MOE); k = constrained ethyl (cEt); d = 2'-deoxy (DNA)

Data set [1] deals with MALAT1. The conditions noted are these: ASO, A431, 0.005 µM.
In data set [2] the target is IRF4. The conditions noted are these: ASO.

With CATACCTTAACATCTT (sugars k3 d10 k3, PS), the target mRNA inhibition in data set [1] was 32%.
CATCACTTGGTCAATT (sugars k3 d10 k3, PS): the target mRNA inhibition in data set [2] (SK-MEL-28, 4 µM) stood at 29%.
For the sequence GCGAATGTGCCTTGTG (sugars k3 d10 k3, PS), in data set [2] (MM.1R, 1 µM), the target mRNA inhibition turned out to be 12%.
In the case of CACTCATCTTGACATT (sugars k3 d10 k3, PS), the target mRNA inhibition in data set [2] (SK-MEL-28, 4 µM) was determined as 36%.
Turning to “AATGTGTATTACTCTT (sugars kkdddddddddkdkdk, PS)”, in data set [2] (MM.1R, 1 µM), the target mRNA inhibition was 10% and 15%.
CACATTAAAGGGTAAG (sugars k3 d10 k3, PS): in data set [2] (SK-MEL-28, 4 µM), the target mRNA inhibition was -1%.
Regarding AGCAACTAGCAGGGCA (sugars k3 d10 k3, PS), in data set [2] (MM.1R, 1 µM), the target mRNA inhibition was -2%.
For TAGAAAGCCCTCACCT (sugars k3 d10 k3, PS), the target mRNA inhibition in data set [2] (SK-MEL-28, 4 µM) is 5%.
The same measure, in the same setting: next, GAGAGCTACGCAATCT (sugars k3 d10 k3, PS): 57%.
Take ACTCACTAAAGACTAT (sugars k3 d10 k3, PS): the target mRNA inhibition in data set [2] (SK-MEL-28, 4 µM) is 18%.
For GACCACGCCCCTCTCC (sugars k3 d10 k3, PS), the target mRNA inhibition in data set [2] (SK-MEL-28, 4 µM) came out at 55%.
Turning to GGACGCACGGAGAGGG (sugars k3 d10 k3, PS), the target mRNA inhibition in data set [2] (MM.1R, 1 µM) came to 15%.
“TTTATGTTAGCCAATT (sugars kkdddddddddkekek, PS)”: the target mRNA inhibition in data set [2] (MM.1R, 1 µM) is 9% and 15%.
Regarding GATATAAATAGCTGTT (sugars k4 d8 k4, PS), the target mRNA inhibition in data set [2] (MM.1R, 0.074 µM) was 5% and 3%; in data set [2] (MM.1R, 0.222 µM), 6% and 15%; in data set [2] (MM.1R, 0.666 µM) it was 12%; in data set [2] (MM.1R, 2 µM), 24% and 19%; in data set [2] (SK-MEL-28, 0.185 µM), 2% and 6% and 10%; in data set [2] (SK-MEL-28, 4 µM), 61%. Further, the target mRNA inhibition in data set [2] (SK-MEL-28, 5 µM) is 57% and 76%.
Take “GTGATGTCAGGTTTTC (sugars kkkdddddddddkeke, PS)”: the target mRNA inhibition in data set [2] (MM.1R, 1 µM) stood at 34%.
For CTCAGCAAGTGTCTTC (sugars k3 d10 k3, PS), the target mRNA inhibition in data set [2] (SK-MEL-28, 4 µM) was found to be 45%.
“GTGATAGCTGAGCTGA (sugars kddddddddddkekek, PS)”: the target mRNA inhibition in data set [2] (MM.1R, 1 µM) is 29%.
Consider GCTGAATTGTCATGAA (sugars k3 d10 k3, PS), for which, in data set [2] (SK-MEL-28, 4 µM), the target mRNA inhibition amounted to 36%.
Regarding “GATTATATACTGGTTG (sugars kkdddddddddekeke, PS)”, the target mRNA inhibition in data set [2] (MM.1R, 1 µM) was determined as 46%.
For ACCCAGTGGTAGGTAG (sugars k3 d10 k3, PS), the target mRNA inhibition in data set [2] (SK-MEL-28, 4 µM) turned out to be 30%.
For the sequence ACCATGTTCCTGAAGA (sugars k3 d10 k3, PS), the target mRNA inhibition in data set [2] (SK-MEL-28, 4 µM) stood at 44%.
Regarding TGTAAGGTCTGAGAGC (sugars k3 d10 k3, PS), the target mRNA inhibition in data set [2] (SK-MEL-28, 4 µM) was found to be 25%.
Consider ATTTACACCGTTGCTC (sugars k3 d10 k3, PS), for which the target mRNA inhibition in data set [2] (MM.1R, 1 µM) came out at 13%.
As to ATCCAGAGGACCACGC (sugars k3 d10 k3, PS), in data set [2] (SK-MEL-28, 4 µM), the target mRNA inhibition worked out at 19%.
As for GGAGAATTTGGGCTGG (sugars k3 d10 k3, PS), in data set [2] (SK-MEL-28, 4 µM), the target mRNA inhibition stood at 75%.
Consider GAGCCGCCACATCAGC (sugars k3 d10 k3, PS), for which the target mRNA inhibition in data set [2] (SK-MEL-28, 4 µM) is 23%.
Same read-out and setting: as for GTCTAGACAGAGAGTC (sugars k3 d10 k3, PS), the figure is 2%.
On to “GTGTGCTTGCCAAGCC (sugars kkdddddddddekeke, PS)”, for which, in data set [2] (MM.1R, 1 µM), the target mRNA inhibition is 17% and 19%.
As to GCCCATGTGAGCTCTT (sugars k3 d10 k3, PS), the target mRNA inhibition in data set [2] (SK-MEL-28, 4 µM) amounted to 50%.
As for GCTCCACAGCAAGGCC (sugars k3 d10 k3, PS), the target mRNA inhibition in data set [2] (SK-MEL-28, 4 µM) turned out to be 58%.
With “GAAGCATTTTATCATC (sugars kkdddddddddekeke, PS)”, in data set [2] (MM.1R, 1 µM), the target mRNA inhibition amounted to 6%.
Regarding “GATGTGATAGCTGAGC (sugars kdddddddddkekeke, PS)”, the target mRNA inhibition in data set [2] (MM.1R, 1 µM) stood at 18%.
For the sequence AGGAGGGTTGGCCTGC (sugars k3 d10 k3, PS), the target mRNA inhibition in data set [2] (SK-MEL-28, 4 µM) was found to be 4%.
As for GGCTTTGTGTTTAAGT (sugars k3 d10 k3, PS), the target mRNA inhibition in data set [2] (SK-MEL-28, 4 µM) turned out to be 23%.
As for GGGAATTTCCATTGGA (sugars k3 d10 k3, PS), in data set [2] (SK-MEL-28, 4 µM), the target mRNA inhibition was 44%.
For “CTGTTACCGATGCTTC (sugars kkdddddddddkekek, PS)”, the target mRNA inhibition in data set [2] (MM.1R, 1 µM) was 52% and 44%.
Take CAATTTACATCTTACT (sugars k3 d10 k3, PS): in data set [2] (SK-MEL-28, 4 µM), the target mRNA inhibition was 21%.
For the sequence TGGAGATACTTGTACT (sugars k3 d10 k3, PS), the target mRNA inhibition was -15% in data set [2] (MM.1R, 0.0625 µM); -7% in data set [2] (MM.1R, 0.25 µM); 42% and 21% in data set [2] (MM.1R, 1 µM); 58% in data set [2] (MM.1R, 4 µM).
Consider ACCCTCCCCAACTTAA (sugars k3 d10 k3, PS), for which, in data set [2] (SK-MEL-28, 4 µM), the target mRNA inhibition stood at 10%.
With AGCACTGGCATCGAGA (sugars k3 d10 k3, PS), the target mRNA inhibition in data set [2] (SK-MEL-28, 4 µM) stood at 59%.
With TTCCACACTGGATATG (sugars k3 d10 k3, PS), the target mRNA inhibition in data set [2] (SK-MEL-28, 4 µM) stood at 41%.

The values above are taken from the OligoGym collection.
